Data from PubChem BioAssay (NCI).
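Cultured in 96-well plates, cells were exposed to test compound for 48 hours across five concentrations. GI50 is the concentration that inhibits growth by half. TGI is the concentration that stops growth completely.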

Experiments:
Experiment in all cases: NCI-60 cell line screen, 48 h
786-0 renal = system: 786-0 renal
A498 renal = system: A498 renal
A549 NSCLC = system: A549 NSCLC
ACHN renal = system: ACHN renal
BT-549 breast = system: BT-549 breast
CAKI-1 renal = system: CAKI-1 renal
CCRF-CEM leukemia = system: CCRF-CEM leukemia
COLO 205 colon = system: COLO 205 colon
DU-145 prostate = system: DU-145 prostate
EKVX NSCLC = system: EKVX NSCLC
HCC-2998 colon = system: HCC-2998 colon
HCT-116 colon = system: HCT-116 colon
HCT-15 colon = system: HCT-15 colon
HL-60(TB) leukemia = system: HL-60(TB) leukemia
HOP-62 NSCLC = system: HOP-62 NSCLC
HOP-92 NSCLC = system: HOP-92 NSCLC
HS 578T breast = system: HS 578T breast
HT29 colon = system: HT29 colon
IGROV1 ovarian = system: IGROV1 ovarian
K-562 leukemia = system: K-562 leukemia
KM12 colon = system: KM12 colon
LOX IMVI melanoma = system: LOX IMVI melanoma
M14 melanoma = system: M14 melanoma
MALME-3M melanoma = system: MALME-3M melanoma
MCF7 breast = system: MCF7 breast
MDA-MB-231 breast = system: MDA-MB-231 breast
MDA-MB-435 = system: MDA-MB-435
MOLT-4 leukemia = system: MOLT-4 leukemia
NCI-H226 lung = system: NCI-H226 lung
NCI-H23 lung = system: NCI-H23 lung
NCI-H460 lung = system: NCI-H460 lung
NCI-H522 lung = system: NCI-H522 lung
NCI/ADR-RES ovarian = system: NCI/ADR-RES ovarian
OVCAR-3 ovarian = system: OVCAR-3 ovarian
OVCAR-4 ovarian = system: OVCAR-4 ovarian
OVCAR-5 ovarian = system: OVCAR-5 ovarian
OVCAR-8 ovarian = system: OVCAR-8 ovarian
PC-3 prostate = system: PC-3 prostate
RPMI-8226 leukemia = system: RPMI-8226 leukemia
RXF 393 renal = system: RXF 393 renal
SF-268 CNS = system: SF-268 CNS
SF-295 CNS = system: SF-295 CNS
SF-539 CNS = system: SF-539 CNS
SK-MEL-2 melanoma = system: SK-MEL-2 melanoma
SK-MEL-28 melanoma = system: SK-MEL-28 melanoma
SK-MEL-5 melanoma = system: SK-MEL-5 melanoma
SK-OV-3 ovarian = system: SK-OV-3 ovarian
SN12C renal = system: SN12C renal
SNB-19 CNS = system: SNB-19 CNS
SNB-75 CNS = system: SNB-75 CNS
SR leukemia = system: SR leukemia
SW-620 colon = system: SW-620 colon
T-47D breast = system: T-47D breast
TK-10 renal = system: TK-10 renal
U251 CNS = system: U251 CNS
UACC-257 melanoma = system: UACC-257 melanoma
UACC-62 melanoma = system: UACC-62 melanoma
UO-31 renal = system: UO-31 renal

For `Cc1ncc(C(=O)Nc2ccc(CN3CCN(C)CC3)c(C(F)(F)F)c2)cc1C#Cc1c(N)ncc2ccc(C#N)cc12`, the GI50 (786-0 renal) was 1.19 µM, the TGI (786-0 renal) was 3.06 µM and the GI50 (A498 renal) was 1.21 µM. The TGI (A498 renal) was 4.55 µM, the GI50 (A549 NSCLC) was 2.82 µM and the TGI (A549 NSCLC) was 14.4 µM. It also gave a GI50 (ACHN renal) of 0.293 µM, a TGI (ACHN renal) of 3.35 µM and a GI50 (BT-549 breast) of 2.71 µM. The TGI (BT-549 breast) was 11.2 µM, the GI50 (CAKI-1 renal) was 0.89 µM and the TGI (CAKI-1 renal) was 7.22 µM. For the same compound, the GI50 (CCRF-CEM leukemia) was 1.41 µM, the TGI (CCRF-CEM leukemia) was 16.5 µM and the GI50 (COLO 205 colon) was 0.059 µM. For the same compound, the TGI (COLO 205 colon) was 8.05 µM, the GI50 (DU-145 prostate) was 0.976 µM and the TGI (DU-145 prostate) was 7.43 µM. It also gave a GI50 (EKVX NSCLC) of 0.54 µM, a TGI (EKVX NSCLC) of over 22.8 µM and a GI50 (HCC-2998 colon) of 4.96 µM. The TGI (HCC-2998 colon) was over 40.9 µM, the GI50 (HCT-116 colon) was 0.24 µM and the TGI (HCT-116 colon) was 5.94 µM. The GI50 (HCT-15 colon) was 0.547 µM, the TGI (HCT-15 colon) was 8.86 µM and the GI50 (HL-60(TB) leukemia) was 9.24 µM. For the same compound, the TGI (HL-60(TB) leukemia) was over 50 µM, the GI50 (HOP-62 NSCLC) was 0.988 µM and the TGI (HOP-62 NSCLC) was 11.2 µM. The GI50 (HOP-92 NSCLC) was 0.075 µM, the TGI (HOP-92 NSCLC) was 1.25 µM and the GI50 (HS 578T breast) was 0.572 µM. For the same compound, the TGI (HS 578T breast) was 4.93 µM, the GI50 (HT29 colon) was 0.0293 µM and the TGI (HT29 colon) was 7.74 µM. For the same compound, the GI50 (IGROV1 ovarian) was 0.111 µM, the TGI (IGROV1 ovarian) was 4 µM and the GI50 (K-562 leukemia) was 0.005 µM. For the same compound, the TGI (K-562 leukemia) was 5.3 µM, the GI50 (KM12 colon) was 0.005 µM and the TGI (KM12 colon) was 2.09 µM. The GI50 (LOX IMVI melanoma) was 0.092 µM, the TGI (LOX IMVI melanoma) was 0.791 µM and the GI50 (M14 melanoma) was 0.029 µM. For the same compound, the TGI (M14 melanoma) was 0.659 µM, the GI50 (MALME-3M melanoma) was 0.0167 µM and the TGI (MALME-3M melanoma) was 0.157 µM. The GI50 (MCF7 breast) was 0.693 µM, the TGI (MCF7 breast) was 11.4 µM and the GI50 (MDA-MB-231 breast) was 0.161 µM. It also gave a TGI (MDA-MB-231 breast) of 1.89 µM, a GI50 (MDA-MB-435) of 0.163 µM and a TGI (MDA-MB-435) of 3.31 µM. For the same compound, the GI50 (MOLT-4 leukemia) was 1.03 µM, the TGI (MOLT-4 leukemia) was 19.4 µM and the GI50 (NCI-H226 lung) was 0.451 µM. For the same compound, the TGI (NCI-H226 lung) was 2.3 µM, the GI50 (NCI-H23 lung) was 0.936 µM and the TGI (NCI-H23 lung) was 8.58 µM. The GI50 (NCI-H460 lung) was 4.05 µM, the TGI (NCI-H460 lung) was 12.1 µM and the GI50 (NCI-H522 lung) was 1.61 µM. For the same compound, the TGI (NCI-H522 lung) was 21.7 µM, the GI50 (NCI/ADR-RES ovarian) was 5.06 µM and the TGI (NCI/ADR-RES ovarian) was 16.8 µM. The GI50 (OVCAR-3 ovarian) was 1.57 µM, the TGI (OVCAR-3 ovarian) was 8.54 µM and the GI50 (OVCAR-4 ovarian) was 0.975 µM. It also gave a TGI (OVCAR-4 ovarian) of 11 µM, a GI50 (OVCAR-5 ovarian) of 1.25 µM and a TGI (OVCAR-5 ovarian) of 10.9 µM. For the same compound, the GI50 (OVCAR-8 ovarian) was 4.77 µM, the TGI (OVCAR-8 ovarian) was 21.2 µM and the GI50 (PC-3 prostate) was 4.49 µM. The TGI (PC-3 prostate) was 19.3 µM, the GI50 (RPMI-8226 leukemia) was 1.21 µM and the TGI (RPMI-8226 leukemia) was 9.18 µM. The GI50 (RXF 393 renal) was 0.327 µM, the TGI (RXF 393 renal) was 1.29 µM and the GI50 (SF-268 CNS) was 1.4 µM. For the same compound, the TGI (SF-268 CNS) was 9.7 µM, the GI50 (SF-295 CNS) was over 26.7 µM and the TGI (SF-295 CNS) was over 50 µM. For the same compound, the GI50 (SF-539 CNS) was 1.14 µM, the TGI (SF-539 CNS) was 8.06 µM and the GI50 (SK-MEL-2 melanoma) was 1.74 µM. It also gave a TGI (SK-MEL-2 melanoma) of 17.5 µM, a GI50 (SK-MEL-28 melanoma) of 0.0676 µM and a TGI (SK-MEL-28 melanoma) of 1.91 µM. It also gave a GI50 (SK-MEL-5 melanoma) of 1.1 µM, a TGI (SK-MEL-5 melanoma) of 8.59 µM and a GI50 (SK-OV-3 ovarian) of 1.7 µM. It also gave a TGI (SK-OV-3 ovarian) of 10.9 µM, a GI50 (SN12C renal) of 1.16 µM and a TGI (SN12C renal) of 17.9 µM. The GI50 (SNB-19 CNS) was 6.71 µM, the TGI (SNB-19 CNS) was 15.6 µM and the GI50 (SNB-75 CNS) was 2.38 µM. The TGI (SNB-75 CNS) was 8.93 µM, the GI50 (SR leukemia) was 1.42 µM and the TGI (SR leukemia) was 12.2 µM. It also gave a GI50 (SW-620 colon) of 0.661 µM, a TGI (SW-620 colon) of 10.3 µM and a GI50 (T-47D breast) of over 14.5 µM. For the same compound, the TGI (T-47D breast) was over 50 µM, the GI50 (TK-10 renal) was 3.08 µM and the TGI (TK-10 renal) was 12.2 µM. For the same compound, the GI50 (U251 CNS) was 5.8 µM, the TGI (U251 CNS) was 14.4 µM and the GI50 (UACC-257 melanoma) was 0.473 µM. It also gave a TGI (UACC-257 melanoma) of 10.5 µM, a GI50 (UACC-62 melanoma) of 0.0362 µM and a TGI (UACC-62 melanoma) of 6.1 µM. For the same compound, the GI50 (UO-31 renal) was 1.26 µM and the TGI (UO-31 renal) was 4.99 µM.
